Test results reported in patent publication US4374040A, “Aminoalkylenephosphonic acids and salts thereof and their use in aqueous systems” (Buckman Laboratories, Inc., priority 1980, dated 1983).

Tests used:
[1] = Calcium Carbonate Antiprecipitation Tests; conditions: 18 hours, 25° C.
Description: To evaluate the effect of the aminoalkylenephosphonic acids of this invention on the precipitation of calcium carbonate, measured volumes of stock solution (prepared with demineralized water) of the phosphonic acids or their sodium salts were added to 100 ml. portions of a calcium chloride solution (0.2936 g. CaCl2.2H2 O per 100 ml. of solution). Then 100 ml. of a sodium bicarbonate solution (0.168 g. NaHCO3 per 100 ml. of solution) was added to each portion of calcium chloride solution. The test solutions were then agitated on a gyratory shaker table for 18 hours at a temperature of 25° C. At the end of this time, insoluble material was removed by filtration through a Millipore membrane filter, and the calcium ion concentration in the filtrate was determined with an atomic absorption spectrophotometer. […] The compounds tested were as follows:
A. Tetrahydro-N,N-bis(phosphonomethyl)-3-thiophenamine 1,1-dioxide (30 percent)
B. Thirty percent solution of the trisodium salt of A
D. Tetrahydro-N,N,N',N'-tetrakis(phosphonomethyl)-3,4-thiophenediamine 1,1-dioxide (30 percent)
E. 3-Hydrazinotetrahydro-N,N-bis(phosphonomethyl)thiophene 1,1-dioxide (30 percent)
F. Tetrahydro-N-(2-hydroxyethyl)-N-(phosphonomethyl)-3-thiophenamine 1,1-dioxide (30 percent)

[2] = Calcium Sulfate Antiprecipitation Tests; conditions: pH 7, 18 hours, 50° C.
Description: Inhibition of calcium sulfate precipitation by the aminoalkylenephosphonic acids of this invention was evaluated by adding the desired volumes of stock solutions of the phosphonic acids or their sodium salts (prepared with demineralized water) to 10-ml. aliquots of a calcium chloride solution containing 162.9 g. of CaCl2 per liter. The volume of each was made up to 175 ml. with demineralized water, and the pH was adjusted to 7.0 with dilute NaOH or HCl. A 25-ml. aliquot of a sodium sulfate solution (83.84 g. Na2 SO4 per liter) was then added to each. The test solutions were maintained for 18 hours at a temperature of 50° C. A portion of each was filtered while still hot to remove insoluble materials and the filtrate was analyzed for calcium by means of an atomic absorption instrument. The percent inhibition was calculated and the results are included in Table 2.

[3] = Barium Sulfate Antiprecipitation Tests; conditions: pH 7; for Percent inhibition of barium sulfate precipitation: 18 hours, 25° C.
Description: To evaluate the effect of the aminoalkylenephosphonic acids of this invention in inhibiting the precipitation of barium sulfate, the desire volumes of stock solutions of the phosphonic acids or their sodium salts (prepared with demineralized water) were added to 10-ml. aliquots of a barium chloride solution containing 5.35 g. BaCl2.H2 O per liter. The volume of each was made up to 175 ml. with demineralized water, and the pH was adjusted to 7.0 with dilute NaOH or HCl. A 25-ml. aliquot of a sodium sulfate solution (1.24 g. Na2 SO4 per liter) was then added to each. The test solutions were agitated on a gyratory shaker table for 18 hours at 25° C. At the end of this time, insoluble material was removed by filtration and the barium ion concentration was determined with an atomic absorption unit. The percent inhibition was calulated and the results are included in Table 3. Compound C was described in Example 15 and Compound H was described in Example 16. Compound I was an aqueous solution containing 22.5 percent of the trisodium salt of tetrahydro-N,N-bis(phosphonomethyl)-3-thiophenamine 1,1-dioxide and 7.5 percent of a poly(acrylic acid) having a molecular weight of about 4000. Compound J was an aqueous solution containing 7.5 percent of tetrahydro-N,N-bis(phosphononmethyl)-3-thiophenamine 1,1-dioxide and 22.5 percent of a poly(acrylic acid) having a molecular weight of about 4000. Since the percent inhibition results were lower that those obtainined in Examples 15 and 16, a well known scale inhibitor was included in this test for comparison.

SMILES | percent inhibition of calcium carbonate precipitation ([1]; pH 8.5, 1 parts per million) | percent inhibition of calcium carbonate precipitation ([1]; pH 8.5, 3 parts per million) | percent inhibition of calcium carbonate precipitation ([1]; pH 8.5, 5 parts per million) | percent inhibition of calcium carbonate precipitation ([1]; pH 8.5, 10 parts per million) | percent inhibition of calcium carbonate precipitation ([1]; pH 8.5, 25 parts per million) | percent inhibition of calcium carbonate precipitation ([1]; pH 8.5, 50 parts per million) | Percent inhibition of calcium sulfate precipitation ([2]; 1 parts per million) | Percent inhibition of calcium sulfate precipitation ([2]; 3 parts per million) | Percent inhibition of calcium sulfate precipitation ([2]; 5 parts per million) | Percent inhibition of calcium sulfate precipitation ([2]; 10 parts per million) | Percent inhibition of calcium sulfate precipitation ([2]; 25 parts per million) | Percent inhibition of calcium sulfate precipitation ([2]; 50 parts per million) | percent inhibition of calcium carbonate precipitation ([1]; pH 9.0, 1 parts per million) | percent inhibition of calcium carbonate precipitation ([1]; pH 9.0, 3 parts per million) | percent inhibition of calcium carbonate precipitation ([1]; pH 9.0, 5 parts per million) | percent inhibition of calcium carbonate precipitation ([1]; pH 9.0, 10 parts per million) | percent inhibition of calcium carbonate precipitation ([1]; pH 9.0, 25 parts per million) | percent inhibition of calcium carbonate precipitation ([1]; pH 9.0, 50 parts per million) | other results
O=P(O)(O)CN(CP(=O)(O)O)C1CS(=O)(=O)CC1N(CP(=O)(O)O)CP(=O)(O)O (centres unmarked) [D, Tetrahydro-N,N,N',N'-tetrakis(phosphonomethyl)-3,4-thiophenediamine 1,1-dioxide] | 78% | 73% | 73% | 71% | 70% | 70% |  |  |  |  |  |  |  |  |  |  |  |  | 
O=P(O)(O)CN(CP(=O)(O)O)C1CCS(=O)(=O)C1 (centres unmarked) [B] | 92% | 87% | 92% | 91% | 93% | 94% | 40% | 52% | 55% | 78% | 95% | 100% | 9% | 11% | 89% | 85% | 16% | 86% | 
O=P(O)(O)CN(CP(=O)(O)O)NC1CCS(=O)(=O)C1 (centres unmarked) [E, 3-Hydrazinotetrahydro-N,N-bis(phosphonomethyl)thiophene 1,1-dioxide] | 82% | 82% | 77% | 79% | 100% | 91% | 38% | 38% | 38% | 38% | 40% | 45% | 78% | 79% | 79% | 79% | 70% | 86% | 
O=P(O)(O)CN(CP(=O)(O)O)CP(=O)(O)O [Compound K, nitrilotris(methylenephosphonic acid)] |  |  |  |  |  |  |  |  |  |  |  |  |  |  |  |  |  |  | Percent inhibition of barium sulfate precipitation ([3]; 5 parts per million): 5%; Percent inhibition of barium sulfate precipitation ([3]; 10 parts per million): 5%; Percent inhibition of barium sulfate precipitation ([3]; 25 parts per million): 6%; Percent inhibition of barium sulfate precipitation ([3]; 50 parts per million): 12%; effectiveness in inhibiting barium sulfate precipitation, compared with the combinations ([3]; in words): less than that of the combinations containing tetrahydro-N,N-bis(phosphonomethyl)-3-thiophenamine 1,1-dioxide
O=P(O)(O)CN(CP(=O)(O)O)C1CCS(=O)(=O)C1 (centres unmarked) [A, Tetrahydro-N,N-bis(phosphonomethyl)-3-thiophenamine 1,1-dioxide] | 83% | 84% | 78% | 85% | 73% | 71% |  |  |  |  |  |  |  |  |  |  |  |  | 
O=P(O)(O)CN(CCO)C1CCS(=O)(=O)C1 (centres unmarked) [F, Tetrahydro-N-(2-hydroxyethyl)-N-(phosphonomethyl)-3-thiophenamine 1,1-dioxide] | 27% | 25% | 27% | 25% | 38% | 32% | 41% | 38% | 39% | 43% | 61% | 88% |  |  |  |  |  |  | 
